According to patent US20220226338A1, “Methods of Treating Cancer Using CHK1 Inhibitors” (Sierra Oncology, Inc., priority 2019, published 2022):

What was measured:
[1] = test system: Chk1 autophosphorylation; assay: In vitro Chk1 inhibition after genotoxic chemotherapy (autophosphorylation, checkpoint arrest, cytotoxicity potentiation); assay type: cell-based
[2] = target: T1, Chk1 (Homo sapiens, UniProt O14757); details: previously found; Walton et al. Oncotarget 2016; cited from earlier work
T1 sequence (O14757 1-476): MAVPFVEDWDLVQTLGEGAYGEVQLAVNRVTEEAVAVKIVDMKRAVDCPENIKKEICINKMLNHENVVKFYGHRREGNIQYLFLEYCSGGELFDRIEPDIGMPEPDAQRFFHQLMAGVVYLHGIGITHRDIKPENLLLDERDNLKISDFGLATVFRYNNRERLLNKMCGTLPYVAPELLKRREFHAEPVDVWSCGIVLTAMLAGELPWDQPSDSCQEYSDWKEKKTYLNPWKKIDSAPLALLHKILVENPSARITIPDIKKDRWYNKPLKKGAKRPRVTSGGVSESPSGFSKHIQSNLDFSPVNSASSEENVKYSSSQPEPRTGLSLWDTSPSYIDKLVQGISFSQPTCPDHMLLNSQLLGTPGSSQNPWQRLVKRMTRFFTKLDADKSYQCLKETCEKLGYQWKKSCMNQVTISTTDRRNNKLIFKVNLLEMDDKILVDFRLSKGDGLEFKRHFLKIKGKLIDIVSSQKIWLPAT

[3] = Single dose PK, mouse; assay type: in vivo; details: Mouse oral 10 mg/kg single dose
Description: (§1) Several studies have been conducted to evaluate the PK properties of SRA737, such as the absorption (in vitro permeability assays and in vivo PK following IV and oral administration), distribution (in vivo tissue distribution and in vitro plasma protein binding) and metabolism (in vitro hepatocyte and CYP inhibition and induction studies) of SRA737.
(§2) The PK of SRA737 have been determined in the mouse, rat, dog and monkey following oral and IV administration (Table 3). […] An acceptable terminal elimination t1/2 was also observed in each species. […] The plasma protein binding of SRA737 at 1 and 10 μM was examined in mouse, minipig, monkey and human plasma using ultracentrifugation and in dog plasma (10 μM) using rapid equilibrium dialysis.

[4] = Single dose PK, rat; assay type: in vivo; details: Rat oral 10 mg/kg single dose
Description: as §1, §2

[5] = test system: plasma protein; assay: Plasma protein binding, ultracentrifugation, monkey plasma; assay type: in vitro ADME
Procedure: as §2

[6] = Excretion in urine and feces, rats; assay type: in vivo; details: rat, over 24 hours
Procedure: The excretion of SRA737 has been studied in mice and rats administered SRA737 at either 5 mg/kg IV or 10 mg/kg orally. Urine and feces were collected for a 24-hour period after dosing. In mice, renal excretion of intact SRA737 was consistently low (less than 10% of dose) after both oral and IV administration. Following IV administration of SRA737, less than 8% of the dose was recovered as intact drug in the feces while after oral administration this figure was less than 3%. Excretion of intact SRA737 was lower in the rat than in the mouse with <1% of dose excreted renally over 24 hours and less than 1.5% of dose excreted into the feces over 24 hours.

[7] = test system: plasma protein; assay: Plasma protein binding, rapid equilibrium dialysis, dog plasma; assay type: in vitro ADME; details: 10 μM
Procedure: as §2

[8] = SRA737 monotherapy clinical study (SRA737-01), safety and tolerability; assay type: in vivo
Procedure: A Phase 1 clinical trial was conducted in ‘all comers,’ i.e. no genetic selection was performed, to establish safety, tolerability and pharmacokinetics (“Dose Escalation Phase”). Cohorts consisting initially of a single subject received escalating doses of SRA737, starting in Cohort 1 with 20 mg/day administered orally on a continuous daily dosing schedule in 28 day cycles. the dose was escalated until the maximum tolerated dose (MTD) was identified.
In the Dose Escalation Phase, 18 subjects received SRA737 in 9 dose level cohorts, from 20 to 1300 mg QD; median treatment duration 62.5 days (range 1 to 226). […] Two of 3 subjects experienced DLTs at the 1300 mg once daily dose, each being an inability to receive 75% of the planned SRA737 dose due to GI intolerability, with the individual GI effects being low grade. […] A cohort receiving 500 mg twice daily was added to determine if a twice daily dosing schedule can improve GI tolerability, given the half-life of SRA737 is approximately 10 hours. One of 6 subjects experienced DLTs in the 500 mg twice daily cohort; this was an inability to receive 75% of the planned SRA737 dose due to grade 4 thrombocytopenia with grade 3 neutropenia and anemia.
A Dose Escalation phase employed an accelerated titration design starting at 20 mg SRA737, administered QD orally in 28-day cycles. Incremental dose escalations in single-subject cohorts were followed by a rolling-6 design once SRA737-related ≥Grade 2 toxicity was observed during Cycle 1.
Dose limiting toxicities (DLTs) were assessed following a pharmacokinetic (PK) lead-in dose, and throughout Cycle 1 of treatment, and were defined as adverse events highly probably or probably related to SRA737: grade ≥4 neutropenia or thrombocytopenia lasting >7 days, grade ≥3 febrile neutropenia or thrombocytopenia with bleeding, grade ≥3 non-hematologic toxicity, or the inability to receive ≥75% of the planned SRA737 dose in Cycle 1 due to drug-related toxicity.

[9] = test system: plasma protein; assay: Plasma protein binding, ultracentrifugation, mouse plasma; assay type: in vitro ADME; details: for Percentage Bound / Percentage Free: Mouse plasma
Procedure: as §2

[10] = test system: CYP1A2; assay: CYP induction in vitro; assay type: in vitro ADME; details: positive control omeprazole, minimal, concentration dependent

N#Cc1cnc(Nc2cc(NCC3CNCCO3)c(C(F)(F)F)cn2)cn1 (stereo not drawn) [SRA737, 5-[[4-[[morpholin-2-yl]methylamino]-5-(trifluoromethyl)-2-pyridyl]amino]pyrazine-2-carbonitrile]
inhibition of genotoxicity-induced checkpoint arrest [1]: dose-dependent inhibition | potentiation of the cytotoxicity of genotoxic chemotherapeutic agents and targeted agents [1]: dose-dependent potentiation | inhibition of genotoxic chemotherapy-induced Chk1 autophosphorylation ([1]; data not shown): potently inhibited | inhibitor of Chk1 [2]: potent and selective inhibitor of Chk1 with limited off-target activity against other kinases | Foral [3]: 105% | Foral [4]: 42% | Percentage Bound ([5]; 1 μM): 88.8% | Percentage Free ([5]; 1 μM): 11.2% | Percentage Bound ([5]; 10 μM): 85.8% | Percentage Free ([5]; 10 μM): 14.2% | intact SRA737 excreted into the feces [6]: less than 1.5 % of dose | intact SRA737 excreted renally [6]: < 1 % of dose | Percentage Bound [7]: 68.8% | Percentage Free [7]: 31.2% | AST increased ([8]; human, in vivo): 3% | TEAEs mild to moderate in severity (Grade 1/Grade 2) ([8]; human, in vivo): 90% | abdominal pain ([8]; human, in vivo): 3% | abdominal pain upper ([8]; human, in vivo): 3% | diarrhea, most common TEAEs ([8]; human, in vivo): 68% | disease progression ([8]; human, in vivo): 8% | dose-limiting toxicities (DLTs) ([8]; human, in vivo): without any dose-limiting toxicities | dyspnea ([8]; human, in vivo): 3% | emergent or cumulative toxicity and/or declining tolerability ([8]; human, in vivo): No evidence of emergent or cumulative toxicity and/or declining tolerability | fatigue ([8]; human, in vivo): 3% | fatigue, most common TEAEs ([8]; human, in vivo): 47% | hyponatremia ([8]; human, in vivo): 4% | infection ([8]; human, in vivo): 4% | lymphocyte count decreased ([8]; human, in vivo): 5% | nausea ([8]; human, in vivo): 3% | nausea, most common TEAEs ([8]; human, in vivo): 66% | neutropenia ([8]; human, in vivo): 8% | pleural effusion ([8]; human, in vivo): 3% | rash maculo-papular ([8]; human, in vivo): 3% | recommended monotherapy dose ([8]; human, in vivo): 800 mg/day | subjects with at least one SRA737-related event ([8]; human, in vivo): 91% | tolerability of 800 mg once daily ([8]; human, in vivo): overall better tolerated than 1000 mg | vomiting, most common TEAEs ([8]; human, in vivo): 51% | subjects experiencing DLTs ([8]; human, in vivo, 28 days): 3 subjects | maximum tolerated dose (MTD) ([8]; monotherapy): 1000 mg/day | recommended dose for expansion cohorts (RP2D) ([8]; monotherapy): 800 mg QD | relatedness of Grade 5 TEAEs ([8]; monotherapy): none were considered related to SRA737 | subjects with treatment-emergent adverse events (TEAEs) ([8]; monotherapy): 106 (99%) n (%) | maximum tolerated dose (MTD) ([8]; monotherapy, once daily): 1000 mg QD | maximum tolerated dose (MTD) ([8]; monotherapy, twice daily): 500 mg BID | number of Grade 5 TEAEs ([8]; monotherapy, up to 30-days post last treatment): Six | Percentage Bound ([9]; 1 μM): 94.5% | Percentage Free ([9]; 1 μM): 5.5% | Percentage Bound ([9]; 10 μM): 93.4% | Percentage Free ([9]; 10 μM): 6.6% | plasma protein binding ([9]; mouse): ~94% | induction of CYP1A2 [10]: < 10 % positive control
